How the values were obtained:
Format in all cases: cell-based
[1] = target: T1, human TRPV4 (hTRPV4/CHO cells) (Homo sapiens, UniProt Q9HBA0); assay: Test Example 2: TRPV4 inhibitory activity (IC50 value), 4α-PDD stimulation, Fluo3 calcium fluorescence (FLIPR)
T1 construct: expressed in transfected cells; host or cells: CHO-K1
Procedure: TRPV4 Inhibitory Activity (IC50 Value)
(§1) For each compound, TRPV4 inhibitory activity was measured using cells.
(§2) (Method) The procedures of evaluating TRPV4 inhibitory activity of a compound are as follows.
(§3) (1) TRPV4 inhibitory activity was measured using CHO-K1 cells stably expressing human TRPV4 (hTRPV4/CHO cells).
(2) In the day before the experimental day, frozen cell were thawed and washed with the culture medium (MEM-α, 10% FBS, 4 mmol/L L-Glutamine, 50 unit Penicillin, 50 μg/mL Streptomycin). Then cells were suspended in the culture medium.
(3) The 384-well plates which hTRPV4/CHO cells were seeded at densities of 4000 cells/well in the culture medium and cultured in a CO2 incubator in the presence of 5% CO2 at 37° C. for 24 hours was used as assay plates.
(4) The assay plate was washed with assay buffer (Hanks, 20 mmol/L HEPES, 2.5 mmol/L probenecid, pH7.4), and the buffer were remained at 20 μL/well.
(5) 10 μl of dye loading buffer (9 μmol/L Fluo 3-AM, 0.09% Pluronic F-127, 1% BSA/assay buffer) was added to each well, then the assay plate was incubated in a CO2 incubator in the presence of 5% CO2 at 37° C. for one hour. (final conc.; 3 μmol/L Fluo3-AM).
(6) The assay plate was washed with the assay buffer, and the buffers were remained at 20 μL/well. Then the assay plate was incubated for 10 min at room temperature.
(7) 20 μL of diluted compound solution was added to each well of assay plate, and mixed with built-in Pipette and Mixer of the Fluorescence analysis system FLIPR 384 (Molecular devices).
(8) After incubation for 4 min, 25 μL of 4α-PDD solution were applied to each well of assay plate and mixed with the FLIPR TETRA. (final conc.; 600 nmol/L 4α-PDD)
(9) The fluorescent intensity was measured with FLIPR TETRA system for 7 min from the point of time addition the compound solution, at Ex 488 nm, Em 510-570 nm wavelength.
TRPV4 inhibitory activity (IC50 value) of a compound was calculated according to the following procedure.
(§4) (10) In the presence of the compound, the difference between maximal and minimal of fluorescent intensity value for 3 min from just before addition of 4α-PDD solution was calculated, and it was referred as Max-Min value. Max-Min value of the Ruthenium Red at 20 μM was defined as 100% inhibitory activity, Max-Min value in the absence of the compound was defined as 0% inhibitory activity. TRPV4 inhibitory activity of the compound was calculated by the following formula.
(§5) (1−(Max−Min value of the compound−100% inhibitory activity)/(0% inhibitory activity−100% inhibitory activity))×100
(11) Inhibitory activity was calculated at 10 points with twice serial dilution, in the final concentration of the compound from 3.85 μg/mL to 7.5 ng/mL, the IC50 value (nmol/L) was calculated by logistic approximation method.

[2] = target: T1, human TRPV4 (hTRPV4/CHO cells); assay: Test Example 1: TRPV4 inhibitory activity (IC50 value), 4α-PDD stimulation, Fluo4 calcium fluorescence (FLIPR TETRA); details: Test Example 1, 4α-PDD stimulation, read-out: Test 1 IC50
[3] = target: T1, human TRPV4 (hTRPV4/CHO cells); assay: Test Example 4: TRPV4 inhibitory activity (Ki value), 4α-PDD stimulation, Fluo-3 calcium fluorescence (FDSS 3000); details: Test Example 4, 4α-PDD stimulation, read-out: Test 4 Ki
Procedure: TRPV4 Inhibitory Activity (Ki Value)
as §1, §2, §3
(2) Cells were subcultured using the MEM-α medium (SIGMA M4526: 500 ml), FBS (HyCloneSH30070.03: 10%), L-Glutamine 200 mmol/L (GIBCO: 4 mmol/L), P/S (nacalai tesque: 1%), G418 (nacalai tesque: 1 mg/mL).
(3) The 96-well plates which hTRPV4/CHO cells were seeded at densities of 2×10^4 cells/well in the culture medium in the day before the experimental day, and cultured in a CO2 incubator in the presence of 5% CO2 at 37° C. for 24 hours was used as assay plates.
(4) Cells were washed with assay buffer (Hank's Balanced Salt Solution 9.8 g, 1 mol/L HEPES (pH7.5), 250 mmol/L probenecid).
(5) Fluo-3, fluorescent dye for Ca influx assay was added to each well, then the assay plate was incubated in a CO2 incubator in the presence of 5% CO2 at 37° C. for one hour (final conc.; 5 μmol/L Fluo-3).
(6) The assay plate was washed with the assay buffer, and the buffer was remained at 30 μL/well. Then the assay plate was incubated for 10 min at 37° C.
(7) 20 μL of diluted compound solution was added to each well of assay plate, and mixed with built-in Pipette and Mixer of the fluorescence analysis system FDSS 3000 (Hamamatsu Photonics).
(8) 50 μL of 4α-PDD solution (concluding 0.1% Pluronic F-127) was applied to each well of assay plate and mixed.
(9) The fluorescent intensity was measured by FDSS 3000 for 8 min from the point of time addition the compound solution, at Ex 480 nm, Em 540 nm wavelength.
TRPV4 inhibitory activity (Ki value) of a compound was calculated according to the following procedure.
as §4, with “8” for “3”, “10” for “20”
as §5
(11) By the following formula, inhibitory activity was calculated at 10 points with three fold serial dilution, in the final concentration of the compound from 10 μmol/L to 0.5 nmol/L. The IC50 value was calculated by dose-response curve.
100−[(fluorescent intensity in the presence of the compound−fluorescent intensity of back ground)/(total fluorescent intensity−fluorescent intensity of back ground)]×100
(12) In the presence of the compound, activity of 4α-PDD was measured at 9 points with three fold serial dilution from 20 μmol/L. Activity of 4α-PDD was calculated by the following formula.
(Max−Min value of the each 4α-PDD concentration−0% activity)/(100% activity−0% activity))×100
(13) Effective activity was calculated in 4α-PDD the above. The EC50 value was calculated by dose-response curve.
(14) The Ki value of a compound was calculated by the following formula.
Ki=IC50 value/1+([A]/EC50)
[A]: Concentration of agonist (nmol/L)

[4] = Test Example 2, 4α-PDD stimulation, read-out: Test 2 IC50

T1 sequence (Q9HBA0 whole entry): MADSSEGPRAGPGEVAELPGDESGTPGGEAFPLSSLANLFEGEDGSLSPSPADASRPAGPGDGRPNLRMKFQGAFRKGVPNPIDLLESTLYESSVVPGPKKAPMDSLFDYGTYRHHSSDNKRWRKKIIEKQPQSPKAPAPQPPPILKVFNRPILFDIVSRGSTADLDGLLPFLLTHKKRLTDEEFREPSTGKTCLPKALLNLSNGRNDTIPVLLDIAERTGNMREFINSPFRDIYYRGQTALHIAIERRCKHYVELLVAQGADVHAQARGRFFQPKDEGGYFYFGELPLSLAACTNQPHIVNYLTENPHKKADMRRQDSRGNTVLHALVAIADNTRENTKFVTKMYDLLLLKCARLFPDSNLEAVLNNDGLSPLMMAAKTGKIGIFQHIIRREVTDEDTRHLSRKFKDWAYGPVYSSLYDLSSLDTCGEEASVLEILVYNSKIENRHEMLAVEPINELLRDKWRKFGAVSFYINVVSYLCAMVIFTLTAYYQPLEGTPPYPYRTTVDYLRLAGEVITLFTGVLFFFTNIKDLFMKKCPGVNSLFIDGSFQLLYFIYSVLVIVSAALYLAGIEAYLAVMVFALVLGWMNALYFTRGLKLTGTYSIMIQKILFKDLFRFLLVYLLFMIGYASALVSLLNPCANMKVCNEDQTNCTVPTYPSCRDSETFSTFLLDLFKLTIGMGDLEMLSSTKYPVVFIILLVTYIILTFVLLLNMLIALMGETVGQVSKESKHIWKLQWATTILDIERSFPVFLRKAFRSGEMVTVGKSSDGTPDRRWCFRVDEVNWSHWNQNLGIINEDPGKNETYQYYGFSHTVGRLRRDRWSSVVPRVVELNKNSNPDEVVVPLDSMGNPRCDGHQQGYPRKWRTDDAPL

Compound | IC50 ([1]; 600 nmol/L 4α-PDD, Fluo3-AM, read-out: TRPV4 inhibitory activity (IC50 value)) | IC50 [1, 4] | IC50 [2] | Ki [3]
Cc1nc(C)c(-c2csc(NC(=O)Cc3ccc(F)c(Cl)c3)n2)s1 [Compound I-49] |  |  | < 100 nM | < 100 nM
Cc1nc(C)c(-c2csc(NC(=O)C3CCC3)n2)s1 [Compound I-226] |  |  | 100 to 1000 nM | < 100 nM
Cc1nc(C)c(-c2csc(NC(=O)Cc3ccc(Br)cc3)n2)s1 [Compound I-225] |  |  | < 100 nM | < 100 nM
Cc1nc(C)c(-c2csc(NC(=O)C3Cc4ccccc4C3)n2)s1 [Compound I-43] |  |  | < 100 nM | < 100 nM
Cc1nc(C)c(-c2csc(NC(=O)C3CC3)n2)s1 [Compound I-23] |  |  | 100 to 1000 nM | < 100 nM
Cc1nc(C)c(-c2csc(NC(=O)Cn3cc(Cl)cn3)n2)s1 [Compound I-50] |  |  | 100 to 1000 nM | < 100 nM
Cc1nc(C)c(-c2csc(NC(=O)C(C)C)n2)s1 [Compound I-32] |  |  | 100 to 1000 nM | < 100 nM
N=C(N)Nc1ncc(-c2csc(NC(=O)c3ccccc3)n2)s1 [Compound I-187] |  | 1000 to 8000 nM |  | 
Cc1nc(C)c(-c2csc(NC(=O)C3CC(F)(F)C3)n2)s1 [Compound I-34] |  |  | 100 to 1000 nM | < 100 nM
Cc1ncsc1-c1csc(NC(=O)Cc2ccc(Br)cc2)n1 [Compound I-13] |  |  | < 100 nM | 100 to 1000 nM
Cc1nc(C)c(-c2csc(NC(=O)CC3CC(F)(F)C3(F)F)n2)s1 (centres unmarked) [Compound I-53] |  |  | 100 to 1000 nM | 100 to 1000 nM
Cc1nc(C)c(-c2csc(NC(=O)Cc3ccc(S(=O)(=O)C(F)F)cc3)n2)s1 [Compound I-36] |  |  | < 100 nM | < 100 nM
Cc1nc(C)c(-c2csc(NC(=O)C(C)(C)c3ccc(Cl)cc3)n2)s1 [Compound I-3] |  |  | 100 to 1000 nM | 100 to 1000 nM
Cc1nc(C)c(-c2csc(NC(=O)C3(c4ccc(Cl)cc4)CC3)n2)s1 [Compound I-2] |  |  | 100 to 1000 nM | 100 to 1000 nM
Cc1nc(C)c(-c2csc(NC(=O)c3ccc(S(=O)(=O)C(F)(F)F)cc3)n2)s1 [Compound I-24] |  |  | 100 to 1000 nM | 100 to 1000 nM
Cc1nc(C)c(-c2csc(NC(=O)Cc3ccc(C(F)(F)F)cc3)n2)s1 [Compound I-19] |  |  | < 100 nM | < 100 nM
Cc1nc(C(F)F)sc1-c1csc(NC(=O)Cc2ccc(S(=O)(=O)C(F)(F)F)cc2)n1 [Compound I-29] |  |  | 100 to 1000 nM | 100 to 1000 nM

Second part, the compound after the results:

IC50 ([1]; 600 nmol/L 4α-PDD, Fluo3-AM, read-out: TRPV4 inhibitory activity (IC50 value)) | IC50 [1, 4] | IC50 [2] | Ki [3] | Compound
73 nM | < 100 nM |  |  | Cc1nc(C)c(-c2csc(Nc3ccccn3)n2)s1 [II-22]
 | 100 to 1000 nM |  |  | COc1ccc(/C(C)=N/Nc2nc(-c3sc(C)nc3C)cs2)cc1 [II-19]
 | 100 to 1000 nM |  |  | Cc1ccc(-c2csc(NC(=O)COc3ccc(Br)cc3)n2)s1 [II-16]
 | 1000 to 8000 nM |  |  | O=C(Nc1nc(-c2ccc(Cl)s2)cs1)c1cccc(C(F)(F)F)c1 [II-10]
 | 1000 to 8000 nM |  |  | O=C(Nc1nc(-c2ccc(Br)s2)cs1)c1cccc(F)c1 [II-11]
 | 1000 to 8000 nM |  |  | CC(=O)Nc1nc(-c2ccc(Br)s2)cs1 [II-13]
 | 1000 to 8000 nM |  |  | c1ccc(Nc2nc(-c3cccs3)cs2)nc1 [II-9]
 | 1000 to 8000 nM |  |  | O=C(Nc1nc(-c2ccc(Br)s2)cs1)c1ccc(Br)s1 [II-14]
 | 1000 to 8000 nM |  |  | C=CCNc1nc(-c2sc(C)nc2C)cs1 [II-24]
 | 100 to 1000 nM |  |  | Cc1cccc(Nc2nc(-c3sc(N)nc3C)cs2)c1 [II-20]
 | 1000 to 8000 nM |  |  | O=C(Nc1nc(-c2cccs2)cs1)C1c2ccccc2Oc2ccccc21 [II-15]
 | 1000 to 8000 nM |  |  | O=C(CSc1ccccc1)Nc1nc(-c2ccc(Br)s2)cs1 [II-17]
 | 1000 to 8000 nM |  |  | Cc1ccnc(Nc2nc(-c3sc(N)nc3C)cs2)c1 [II-23]
 | 1000 to 8000 nM |  |  | C/C(=N\Nc1nc(-c2cccs2)cs1)c1ccc(Cl)c(Cl)c1 [II-18]
 | 1000 to 8000 nM |  |  | CC(C)(C)c1ccc(C(=O)Nc2nc(-c3ccc(Cl)s3)cs2)cc1 [II-12]
 | 1000 to 8000 nM |  |  | Cc1nc(N)sc1-c1csc(Nc2ccc(Br)cc2Br)n1 [II-21]

Source: patent US20170066759A1, “AROMATIC 5-MEMBERED HETEROCYCLIC DERIVATIVE HAVING TRPV4-INHIBITING ACTIVITY” (Shionogi & Co., Ltd., priority 2012, published 2017)
